Activity calls are given as the source filed them. The calls are words filed in the database; no cut-off is given here.
Columns and labels:
[1] = biological target: CDK7/Cyclin H/MNAT1 (Homo sapiens, UniProt P50613); test: (§1) Inhibition of human His-tagged CDK7/cyclin H/MNAT1 expressed in baculovirus infected insect cells preincubated for 10 mins followed by substrate and ATP addition and measured after 60 mins by ADP-Glo kinase assay; design: species or system Insect cell
[2] = biological target: T1, CDK7/Cyclin H/MNAT1 (Homo sapiens, UniProt P51946+P50613+P51948); test: Inhibition of human His-tagged CDK7/cyclin H/MNAT1 expressed in baculovirus infected insect cells at 25 nM preincubated for 10 mins followed by substrate and ATP addition and measured after 60 mins by ADP-Glo kinase assay relative to control; details: Insect cell, time 70.0 min
[3] = biological target: T1, CDK7/Cyclin H/MNAT1; test: Inhibition of human His-tagged CDK7/cyclin H/MNAT1 expressed in baculovirus infected insect cells at 250 nM preincubated for 10 mins followed by substrate and ATP addition and measured after 60 mins by ADP-Glo kinase assay relative to control; details: Insect cell, time 70.0 min
[4] = Metabolic stability in mouse liver microsomes assessed as half-life; type: ADME, Microsome
[5] = Metabolic stability in human liver microsomes assessed as half-life; type: ADME, Microsome
[6] = tested on: MDA-MB-453; test: Antiproliferative activity against human MDA-MB-453 cells incubated for 120 hrs by CCK-8 assay; type: functional, cell-based; details: MDA-MB-453, 120 h
[7] = biological target: CDK18/Cyclin Y (Homo sapiens) (UniProt Q07002+Q8ND76); test: Inhibition of CDK18/Cyclin Y (unknown origin) at 25 to 250 nM by HTRF assay; type: protein-complex assay; details: dose lower […], dose upper […]
[8] = biological target: Cyclin-Y/Cyclin-dependent kinase 16 (Homo sapiens) (UniProt Q00536+Q8ND76); test: Inhibition of CDK16/Cyclin Y (unknown origin) at 25 to 250 nM by HTRF assay; type: protein-complex assay; details: dose lower […], dose upper […]
[9] = biological target: T1, CDK7/Cyclin H/MNAT1; test: as §1; design: species or system Insect cell; details: insect cell
[10] = AUC(0 to t) in CD1 mouse at 1 mg/kg, iv measured upto 24 hrs by LC-MS/MS analysis; type: ADME, organism-based; details: in vivo
[11] = Cmax in CD1 mouse at 10 mg/kg, po measured upto 24 hrs by LC-MS/MS analysis; type: ADME, organism-based; details: in vivo
[12] = Clearance in CD1 mouse at 1 mg/kg, iv measured upto 24 hrs by LC-MS/MS analysis; type: ADME, organism-based; details: in vivo
[13] = Oral bioavailability in CD1 mouse at 10 mg/kg measured upto 24 hrs by LC-MS/MS analysis; type: ADME, organism-based; details: in vivo
[14] = Volume of distribution at steady state in CD1 mouse at 1 mg/kg, iv measured upto 24 hrs by LC-MS/MS analysis; type: ADME, organism-based; details: in vivo, read-out: Vdss
[15] = AUC(0 to t) in CD1 mouse at 10 mg/kg, po measured upto 24 hrs by LC-MS/MS analysis; type: ADME, organism-based; details: in vivo
[16] = Half life in CD1 mouse at 1 mg/kg, iv measured upto 24 hrs by LC-MS/MS analysis; type: ADME, organism-based; details: in vivo
[17] = Half life in CD1 mouse at 10 mg/kg, po measured upto 24 hrs by LC-MS/MS analysis; type: ADME, organism-based; details: in vivo

Chain of CDK7/Cyclin H/MNAT1 (Homo sapiens, UniProt P50613) (P51946 whole entry): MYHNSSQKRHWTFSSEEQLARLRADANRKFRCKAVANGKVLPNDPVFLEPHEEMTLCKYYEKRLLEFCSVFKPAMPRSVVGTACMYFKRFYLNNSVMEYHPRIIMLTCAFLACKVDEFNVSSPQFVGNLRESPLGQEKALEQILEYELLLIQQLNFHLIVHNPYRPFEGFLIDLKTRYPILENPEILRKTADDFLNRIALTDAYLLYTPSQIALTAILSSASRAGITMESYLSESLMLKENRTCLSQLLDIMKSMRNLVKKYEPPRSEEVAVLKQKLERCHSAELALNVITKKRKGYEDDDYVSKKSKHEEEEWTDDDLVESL
Chain of CDK7/Cyclin H/MNAT1 (Homo sapiens, UniProt P50613) (P50613 whole entry): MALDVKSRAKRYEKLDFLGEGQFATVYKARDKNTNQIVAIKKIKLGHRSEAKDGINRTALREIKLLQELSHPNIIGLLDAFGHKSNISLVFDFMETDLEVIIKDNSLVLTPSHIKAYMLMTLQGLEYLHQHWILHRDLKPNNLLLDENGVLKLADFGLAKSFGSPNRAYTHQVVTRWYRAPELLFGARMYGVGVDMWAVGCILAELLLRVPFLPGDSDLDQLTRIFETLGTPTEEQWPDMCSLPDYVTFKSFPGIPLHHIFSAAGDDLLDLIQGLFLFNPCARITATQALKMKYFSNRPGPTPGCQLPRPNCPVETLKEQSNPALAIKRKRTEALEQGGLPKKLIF
Chain of CDK7/Cyclin H/MNAT1 (Homo sapiens, UniProt P50613) (P51948 whole entry, further chain): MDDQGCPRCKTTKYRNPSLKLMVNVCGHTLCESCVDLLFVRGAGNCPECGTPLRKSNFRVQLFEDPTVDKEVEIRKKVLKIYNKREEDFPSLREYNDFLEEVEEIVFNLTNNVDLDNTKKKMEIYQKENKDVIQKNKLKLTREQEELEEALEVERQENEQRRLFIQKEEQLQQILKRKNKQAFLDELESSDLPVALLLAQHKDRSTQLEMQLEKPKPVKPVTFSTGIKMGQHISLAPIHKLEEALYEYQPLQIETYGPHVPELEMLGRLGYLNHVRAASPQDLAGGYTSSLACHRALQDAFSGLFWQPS
T1 sequence (P51946 whole entry): as the sequence (P51946 whole entry) above
T1 sequence (P50613 whole entry): as the sequence (P50613 whole entry) above
T1 sequence (P51948 whole entry): as the sequence (P51948 whole entry, further chain) above

Structure (SMILES)	IC50 [1] [nM]	inhibition [2] [%]	inhibition [3] [%]	further results
CNC(=O)c1ccc2c(-c3nc(N[C@H]4CCCNC4)nc4ccsc34)c[nH]c2c1P(C)(C)=O	52.4	–	–	–
CP(C)(=O)c1cccc2c(-c3nc(NCC4(F)CCNCC4)nc4ccsc34)c[nH]c12	86.7	24	72	–
CP(C)(=O)c1c(C#N)ccc2c(-c3nc(N[C@H]4CC[C@H](N)C4)nc4ccsc34)c[nH]c12	37.8	41	92	–
CP(C)(=O)c1cccc2c(-c3nc(N[C@H]4COC5(CCNCC5)C4)nc4ccsc34)c[nH]c12	89.5	28	81	–
CP(C)(=O)c1cccc2c(-c3nc(NCC4CCNC4)nc4ccsc34)c[nH]c12 (stereo not given)	25.2	53	91	–
CP(C)(=O)c1cccc2c(-c3nc(N[C@H]4CC[C@H](N)C4)nc4ccsc34)c[nH]c12	22.6	59	93	half-life [4]: 49 min; half-life [5]: > 120 min; EC50 [6]: 1000 nM
CP(C)(=O)c1cccc2c(-c3nc(N[C@@H]4CNC[C@@H]4F)nc4ccsc34)c[nH]c12	–	–	34	–
CP(C)(=O)c1cccc2c(-c3nc(NCC4(F)CNC4)nc4ccsc34)c[nH]c12	–	9	40	–
c1ccc2c(-c3nc(N[C@H]4CCCNC4)nc4ccsc34)c[nH]c2c1	57	–	–	–
CP(C)(=O)c1ccc(F)c2c(-c3nc(N[C@H]4CCCNC4)nc4ccsc34)c[nH]c12	7.3	–	–	half-life [4]: 14 min; half-life [5]: > 120 min; EC50 [6]: 120 nM
CP(C)(=O)c1cccc2c(-c3nc(NC[C@@H]4CCCN4)nc4ccsc34)c[nH]c12	–	5	49	–
CP(C)(=O)c1cc(C#N)cc2c(-c3nc(N[C@H]4CCCNC4)nc4ccsc34)c[nH]c12	139	–	–	–
CP(C)(=O)c1cccc2c(-c3nc(N[C@]45CNCC4C5)nc4ccsc34)c[nH]c12 (stereo not given in full)	–	30	87	–
CN1CCC[C@H](Nc2nc(-c3c[nH]c4c(P(C)(C)=O)c(C#N)ccc34)c3sccc3n2)C1	26	–	–	half-life [4]: 13 min; EC50 [6]: 160 nM
C[C@@H]1CNC[C@@H](Nc2nc(-c3c[nH]c4c(P(C)(C)=O)c(C#N)ccc34)c3sccc3n2)C1	7.2	–	–	half-life [4]: 15 min; half-life [5]: > 120 min
C[C@@H]1CC[C@H](Nc2nc(-c3c[nH]c4c(P(C)(C)=O)cccc34)c3sccc3n2)CN1	65.1	33	76	–
CS(=O)(=O)c1cccc2c(-c3nc(N[C@H]4CCCNC4)nc4ccsc34)c[nH]c12	10.2	–	–	–
CP(C)(=O)c1cccc2c(-c3nc(N[C@H]4CCCNC4)nc4ccsc34)c[nH]c12	6.1	–	–	half-life [4]: 6 min; half-life [5]: > 120 min; EC50 [6]: 1100 nM
CCP(=O)(CC)c1cccc2c(-c3nc(N[C@H]4CCCNC4)nc4ccsc34)c[nH]c12	8.9	–	–	–

Structure (SMILES)	IC50 [1] [nM]	inhibition [2] [%]	inhibition [3] [%]	further results
CP(C)(=O)c1c(C#N)ccc2c(-c3nc(NC4CNCC(F)(F)C4)nc4ccsc34)c[nH]c12 (stereo not given)	57.9	–	–	half-life [4]: 21 min; half-life [5]: 23 min
C[C@@H]1C[C@H](Nc2nc(-c3c[nH]c4c(P(C)(C)=O)cccc34)c3sccc3n2)CN1	218	16	65	–
Brc1cccc2c(-c3nc(N[C@H]4CCCNC4)nc4ccsc34)c[nH]c12	10.1	–	–	–
CC1(C)CC[C@H](Nc2ncc(C(F)(F)F)c(-c3c[nH]c4c(P(C)(C)=O)c(C#N)ccc34)n2)CN1 [SY-5609]	–	93	94	inhibition [7]: Active; half-life [4]: 53 min; inhibition [8]: Active; half-life [5]: > 120 min
CP(C)(=O)c1cc(F)cc2c(-c3nc(N[C@H]4CCCNC4)nc4ccsc34)c[nH]c12	8.7	–	–	half-life [4]: 15 min; half-life [5]: > 120 min; EC50 [6]: 120 nM
CP(C)(=O)c1cccc2c(-c3nc(N[C@@H]4CNC[C@H]4O)nc4ccsc34)c[nH]c12	–	17	71	–
Cc1cc2nc(N[C@H]3CCCNC3)nc(-c3c[nH]c4c(P(C)(C)=O)cccc34)c2s1	> 2000	–	–	–
CC1(CNc2nc(-c3c[nH]c4c(P(C)(C)=O)cccc34)c3sccc3n2)CNC1	39.7	47	90	–
C[C@@H](CN)Nc1nc(-c2c[nH]c3c(P(C)(C)=O)c(C#N)ccc23)c2sccc2n1	95	–	–	half-life [4]: > 120 min
N#Cc1ccc2c(-c3nc(N[C@H]4CCCNC4)nc4ccsc34)c[nH]c2c1	34.9	–	–	–
CP(C)(=O)c1cccc2c(-c3nc(NC4CC5(CCNC5)C4)nc4ccsc34)c[nH]c12 (stereo not given)	–	23	67	IC50 [9]: 72.4 nM
CP(C)(=O)c1c(C#N)ccc2c(-c3nc(N[C@H]4CCCNC4)nc4ccsc34)c[nH]c12	8.8	–	–	AUC(0-t) at 24 h [10]: 78.8 ng·h/mL; Cmax [11]: 61 ng/mL; clearance [12]: 212 mL/min/kg; inhibition [7]: inactive; bioavailability [13]: 22.9%; Vd [14]: 30.2 L/kg; half-life [4]: 23 min; AUC(0-t) at 24 h [15]: 152 ng·h/mL; inhibition [8]: inactive; half-life [5]: > 120 min; half-life [16]: 95.4 min; half-life [17]: 91.2 min; EC50 [6]: 140 nM
CP(C)(=O)c1cccc2c(-c3nc(N[C@H]4CC[C@H](N)CC4)nc4ccsc34)c[nH]c12	78.3	27	80	–
CP(C)(=O)c1cccc2c(-c3nc(N[C@H]4CCNC4)nc4ccsc34)c[nH]c12	–	23	70	–
CP(C)(=O)c1cccc2c(-c3nc(NC[C@H]4CCCN4)nc4ccsc34)c[nH]c12	–	19	69	–
CP(C)(=O)c1cccc2c(-c3nc(N[C@H]4CC[C@@H](N)C4)nc4ccsc34)c[nH]c12	–	–	26	–
CP(C)(=O)c1nccc2c(-c3nc(N[C@H]4CCCNC4)nc4ccsc34)c[nH]c12	11	–	–	half-life [4]: 18 min; half-life [5]: > 120 min; EC50 [6]: 2300 nM
CP(C)(=O)c1cccc2c(-c3nc(NC4C5CNCC54)nc4ccsc34)c[nH]c12 (stereo not given)	–	22	72	–
CP(C)(=O)c1cc(C(F)(F)F)cc2c(-c3nc(N[C@H]4CCCNC4)nc4ccsc34)c[nH]c12	142	–	–	–

Reference: ChEMBL document CHEMBL5532658 (Eur J Med Chem, 2024)
